Results reported in patent publication US20050203119A1, “Dihydropyridine compounds for treating or preventing metabolic disorders” (priority 2003, published 2005).

What was measured:
[1] = test system: Male ZDF rats (ZDF/GmiCrl-fa/fa); experiment: Oral glucose tolerance test in fasted ZDF rats after 8 days of dosing (Example 124, FIG. 10); assay type: in vivo, rat; settings: OGTT
Protocol: Male ZDF rats (ZDF/GmiCrl-fa/fa), homozygous for a mutation in the gene encoding the leptin receptor, were purchased from Charles River Laboratories (Wilmington, Mass., USA). Animals were individually housed in clear polycarbonate cages (contact bedding) on a 12 hr/12 hr light/dark cycle, acclimated for at least one week prior to use and fed normal laboratory chow (Purina No. 5008) ad libitum. Studies were conducted with animals starting between eleven and twelve weeks of age. Animals were used for a single study before being replaced. […] As noted above, animals were dosed on day 8 on the same schedule as was used for days 1 through 7 of the 7DBG study. […] Serum glucose levels were determined using a laboratory analyzer. […] This may be due to the dose of metformin (250 mg/kg) that was used, which may be too high to observe any synergy between the two compounds. […] The indicated time points are relative to the oral glucose dose.

[2] = test system: male db/db mice (C57BLKS/J-m+/+Lepr db/Iar); experiment: Seven day baseline glucose (7DBG) study in fed db/db mice (Example 123, FIGS. 6 and 8); assay type: in vivo, mouse; settings: oral once daily 7 days
Protocol: (§1) To determine the effect of a test compound on blood glucose levels in fed diabetic mice, seven day baseline glucose (7DBG) studies were conducted. Six to eight week old, male db/db mice (C57BLKS/J-m+/+Lepr^db/Iar), homozygous for a mutation in the gene encoding the leptin receptor, were purchased from the Institute for Animal Reproduction (Kasumigaura, Japan). Six to eight week old male KK-A^y mice (KK-A^y/Ta Jcl), a polygenic diabetes model, were purchased from Cler Japan (Tokyo, Japan). Animals were housed four to a cage in micro-isolators on a 12 hr/12 hr light/dark cycle, acclimated for at least one week prior to use and fed normal laboratory chow ad libitum. Studies were conducted with animals between nine and fourteen weeks of age. […]
(§2) To perform a 7DBG study, the starting glucose levels of db/db or KK-Ay mice in the fed state were determined on day 0, 24 hrs prior to the first drug dose on day 1. Animals were retro-orbitally bled and serum glucose levels measured by the mutarotase-glucose oxidase enzymatic method using a Glucose CII-Test Wako kit (Wako Pure Chemicals Industries, Ltd., Osaka, Japan). […] Serum glucose levels were determined 3 hrs after dosing the first compound on days 3 and 7.
The serum glucose levels on days 3 or 7 as a percent of the serum glucose levels on day 0 for individual animals in each group (6-7 mice/group), calculated using Formula 3: [formula] […]

[3] = test system: male KK-Ay mice (KK-Ay/Ta Jcl); experiment: Seven day baseline glucose (7DBG) study in fed KK-Ay mice (Example 123, FIG. 7); assay type: in vivo, mouse; settings: oral once daily 7 days
Protocol: as §1, §2
The serum glucose levels on days 3 or 7 as a percent of the serum glucose levels on day 0 for individual animals in each group (8 mice/group), were calculated using Formula 3. […]

CCOC(=O)C1=C(COCCN)NC2=C(C(=O)CC(C)(C)C2)C1c1cccnc1 (centres unmarked) [Compound 39, 2-(2-Amino-ethoxymethyl)-7,7-dimethyl-5-oxo-4-pyridin-3-yl-1,4,5,6,7,8-hexahydro-quinoline-3-carboxylic acid ethyl ester]
glucose intolerance relative to vehicle-treated animals (FIG. 10) ([1]; after daily oral dosing for 8 days): decreased | effect of metformin on glucose tolerance in combination with Compound 39 (FIG. 10) ([1]; metformin 250 mg/kg): did not appear to enhance | glucose lowering activities of rosiglitazone and metformin in combination with Compound 39 (FIG. 8) [2]: enhanced | glucose lowering activities of rosiglitazone and metformin in combination with Compound 39 (FIG. 7) [3]: enhanced | serum glucose (FIG. 7) ([3]; Compound 39 alone): decreased serum glucose
